# Tests used:
# [1] = Hepatocyte half-life; type: in vitro ADME; conditions: hepatocytes; in vitro; read-out: hepatocyte T1/2
# [2] = system: oxidative phosphorylation complexes I-V; experiment: Avidin agarose pull-down of Biotin-12M11 interacting proteins from Mut6 cells; type: binding, mouse; conditions: Mut6 cell lysates
# Method: To understand the unique selectivity of 12M11 to affect the viability of Mut6 cells, the precise molecular target(s) of 12M11 were determined. A 12M11 biotinylated variant (see Cpd 1.11, FIG. 16C) was generated to attempt to directly pull down interacting proteins. […] Mut6 cells were treated with 12M11, Biot-12M11, or pre-incubated with 12M11 followed by addition of Biot-12M11 (see FIG. 17 for a general schematic protocol). As indicated in the silver stain of a denaturing gel (FIG. 18A) with the pull down reactions, several bands that appear in the Biot-12M11 tract (Lane 2) are substantially diluted or absent in Lane 3 where the cells were pre-incubated with excess 12M11. […] The results from Mass-Spec analysis were as follows: 1) Lysate from Mut6 cells incubated with 12M11 alone yielded no proteins; 2) Lysate from Mut6 cells incubated with Biot-12M11 yielded 8 proteins (Atp5a1, Acaca, Hspa9, Hsp60, Decr1, Sdha, Pcca, and Atp5o; FIG. 19B). Two of the proteins, Acac and Pcca, were discounted as known to nonspecifically bind Biotin (Tong, 2005; Diacovich, et al., 2004; Kalousek, et al., 1980). The remaining 6 proteins all localize to the mitochondrion and 3 of the pulled down proteins are components of the oxidative phosphorylation complexes. […]
# [3] = system: Mut6; experiment: Glucose and lactate in culture media of Mut6 cells; type: cell-based, mouse; conditions: Mut6, 7 hrs incubation
# Method: Mut6 cells were incubated with 12M11 for 7 hrs, and the collected culture media was measured for glucose, lactate, glutamine, and glutamate (Birsoy, et al., 2014; Lunt and Vander Heiden, 2011). […] Oxygen consumption and extracellular acidification using a XF24 Seahorse analyzer was used to measure cellular oxygen consumption rate (OCR) and extracellular acidification rate (ECAR) (FIG. 8).
# [4] = system: Phospho-S6; experiment: p-S6 western blot in Mut6 cells; type: cell-based, mouse
# Method: Mut6 tumor cells and MEFs were treated by DMSO or 1 μM 12M11 for the indicated times. Cell lysate was prepared by RIPA buffer with phosphatase inhibitor (Thermo) and protease inhibitor (Roche). Antibodies are purchased from Santa Cruz (ATF4), Cell Signaling (pS6, S6, AMPK, and pAMPK), and Millipore (Gapdh).
# [5] = system: mitochondrial membrane potential; experiment: TMRE mitochondrial membrane potential staining in Mut6 cells; type: cell-based, mouse; conditions: within 30 min
# Method: TMRE mitochondrial membrane potential assay kit was purchased from Abcam (113852) and the assay was performed according to the manufacturer's protocol. Briefly, cells were pre-incubated with 1 μM 12M11 (10 min or 18 hrs) or 100 nM FCCP (10 min) and incubated for additional 20 min with 200 nM TMRE before pictures were taken.
# [6] = In vivo plasma PK, 10 mg/kg IP; set-up: species or system mice; conditions: female, CD-1, mouse
# Method: 22E. 21 female CD-1 mice (6 wks) were administered 10 mg/kg L129 IP, 0.2 ml/mouse formulated as 5% DMSO, 10% Cremophor EL, and 85% D5W. Plasma was processed from whole blood by centrifugation of the ACD treated blood for 10′ at 10,000 rpm in a standard centrifuge. Brains were weighed and snap frozen in liquid nitrogen. Brain homogenates were prepared by mincing the brain tissue and homogenizing in a 3-fold volume of PBS (total volume of homogenate in mL=4× weight in g.) 100 microliters plasma or brain homogenate was mixed with 200 microliters of acetonitrile containing formic acid and an internal standard (final concentration of formic acid=0.1%, IS=25 ng/mL). The samples were vortexed 15 sec, incubated at room temp for 10′ and spun 2×13,200 rpm in a standard microcentrifuge. The supernatant was then analyzed by LC/MS/MS. Buffer A: Water+0.1% formic acid; Buffer B: MeOH+0.1% formic acid; flow rate 1.5 ml/min; column Agilent C18 XDB column, 5 micron packing 50×4.6 mm size; 0-1.5 min 3% B, 1.5-2.5 min gradient to 100% B; 2.5-3.5 min 100% B, 3.5-3.6 min gradient to 3% B; 3.6-4.5 min 3% B; IS N-benzylbenzamide (transition 212.1 to 91.1); Compound transition 474.2 to 336.3. These methods were used data obtained in the FIGS. 22B and 22E.
# [7] = system: DAOY (medulloblastoma) cells; experiment: CellTiter-Glo cell viability in DAOY cells; type: cell-based
# Method: The activity of compound 12M11 was tested against a variety of cancer cell lines (see FIG. 2A), including those are routinely used in the literature such as HeLa, DAOY, MCF7, 435 and HCC38 cells. […] Just as for MEF cells, without wishing to be bound by any theory, it is believed that the resistance of DAOY cells to the OxyPhos inhibitor 12M11 can be attributed to their higher ATP levels per cell (FIG. 13B) combined with lower intrinsic OxyPhos activity as assessed by TMRE staining (FIG. 13C).
structure (smiles),measurement,setting,value
CCc1n(CC(=O)O[C@@H]2C[C@H](C)CC[C@H]2C(C)C)c2ccccc2[n+]1C.[Cl-] [Compound 12M11],half-life,[1],4.28 h
same,association with OxyPhos complex proteins (pull-down),[2],excludes
same,lactate secretion,[3],increased
same,uptake of glucose,[3],increased
same,Phospho-S6 protein level,[4],down regulation
same,oxidative phosphorylation / mitochondrial membrane potential by TMRE staining,[5],impairs oxidative phosphorylation
same,Cmax,[6],2.7 ng/mL
same,sensitivity of DAOY cells,[7],resistance

# Source: patent US20180354909A1, “SUBSTITUTED BENZIMIDAZOLIUM, PYRIDO-IMIDAZOLIUM, OR PYRAZINO-IMIDAZOLIUM COMPOUNDS AS CHEMOTHERAPEUTICS” (The Board of Regents of the University of Texas System, priority 2015, published 2018)
